Laboratory results from US7132286B2, “Method for neural stem cell differentiation using valproate” (Psychiatric Genomics, Inc., priority 2001, dated 2006).

What was measured:
[1] = tested on: rat stem cells from ventral forebrain i.e. the lateral ganglionic eminence (LGE); assay: Neuronal differentiation of rat stem cells from ventral forebrain (lateral ganglionic eminence); format: cell-based; conditions: data not shown
Procedure: Isolation of cortical and striatal stem cells. […] The abdomen of the rat was cleaned with 70% ethanol and the uterus was removed quickly and aseptically on the bench top.
Removal of meninges is not possible at this age, and no attempt was made to do so. If the dissected tissue was in large enough chunks and settle to the bottom of the tube, no centrifugation was performed. Alternatively, the tube was centrifuged at 1000 rpm for 5 minutes to pellet the tissue. Following centrifugation, the 15 ml tube containing the tissue was sprayed with 70% ethanol and taken into the sterile hood.
About 4–5 ml of the 6 ml of cells suspension was used for plating. […] This culture is designated P0 (passage 0).
The cultures were never permitted to reach more than 70% confluency. […] It is not expected that all cells in the culture will round up as there are several cell types in the culture at P0. The pH of the HBSS should be neutral at all times during this incubation.

[2] = literature; cited from earlier work
rat cortical stem cells [3] = assay: Neurite outgrowth of neurons derived from rat cortical stem cells (ArrayScan neurite outgrowth index); format: cell-based; conditions: 1 day; 0.5 mM valproate, 50 ng/ml BDNF; control 35.1+0.3
Procedure: Following plating cells were expanded for about 3–4 days (Passage 1, P1). Cells were treated daily with 10 ng/ml bFGF. The cultures were never permitted to reach more than 70% confluency. Cultures were then passaged as follows: 10 ml of HBSS without Ca^2+ and Mg^2+ was added to each 100 mm dish and the cells incubated at 37° C. for 5–15 minutes, or until sufficient numbers of the stem cells were rounded up. It is not expected that all cells in the culture will round up as there are several cell types in the culture at P0. The pH of the HBSS should be neutral at all times during this incubation. Cells were then removed from the dish by pipetting with a 5 ml pipette, and collected in a 15 or 50 ml conical tube, and centrifuged at 1000 g for 5 minutes. Cells were gently re-suspended in medium, counted, and plated at a density of 1×10^6 cells in 10 cm dishes and expanded for about 2 days in bFGF (Passage 1, P1). […]
For analysis of neurite outgrowth, digital images were taken with an ArrayScan HCS System (Cellomics, Pa.) of 100 cells/well treated with valproate (0.5 mM) and BDNF (50 ng/ml) for 1 day. […] Neurite outgrowth index is defined as the percentage of cells whose neurites total more than 20 μm in length, and is calculated using Cellomics' Neurite Outgrowth application.

[4] = tested on: teratocarcinoma cell line NTera-2; conditions: NTera-2 cells (Skladchikova et al.); cited from earlier work
rat cortical stem cells [5] = assay: Astrocyte differentiation of rat cortical stem cells (GFAP immunofluorescence); format: cell-based; conditions: 6 days valproate vs control
Procedure: Drug treatment. For immunofluorescence and Western analysis, cells were treated daily with either 0.5 mM of valproate (Sigma), 10 ng/ml of BDNF (R & D Systems), 20 ng/ml of NT-3 (R & D Systems), 1 nM 9cis retinoic acid (Sigma) or a dilution of NCM for 6 or 7 days. In some experiments valproate was also added with NCM and/or 9cis RA for 7 days. For human stem cell experiments, valproate (0.5 mM) or BDNF (25 ng/ml) was added for 9 days. For neurite outgrowth experiments, cells were treated for 1 day with 0.5 mM valproate or 50 ng/ml of BDNF. Where applicable, medium was changed every 2 days. After about 5–10 days, preferably on day 6 (i.e., after 6 days of drug exposure) the cells were fixed with a 4% solution of para-formaldehyde (PFA) in PBS, prepared as follows: Immunofluorescent staining and visualization. Cells were plated at 20,000 cells/well in poly-L-ornithine/fibronectin (1 mg/ml) coated 24-well plates. […] For immunofluorescence, 3 different black and white pictures were taken by field of interest with a digital camera CoolSnap Fx (Princeton) corresponding to the exposure of Cy2, Cy3 and Hoechst fluorescence. […] The percentage of neurons, astrocytes and GABAergic cells was determined by comparing the number of cells immunopositive for β-tubulin III, GFAP and GABA to the number of bis-benzamide stained nuclei (i.e., total cell number). […]

Compound: CCCC(CCC)C(=O)O [valproate, 2-Propylpentanoic acid]
- percentage and number of neurons [1]: increased the percentage and number of neurons
- teratogenic activity [2]: established human teratogen
- neurite index (percentage of cells whose neurites total more than 20 μm in length) (rat cortical stem cells [3]): 49+1.9
- proliferation and retinoic acid-induced neuronal differentiation [4]: inhibit the proliferation and block retinoic acid-induced neuronal differentiation
- expression of GFAP (astrocyte marker) (rat cortical stem cells [5]): dramatically inhibited
